Laboratory results published in ChEMBL document CHEMBL1201862, “PubChem BioAssay data set” (2004).
The source made the active and inactive calls.

How the values were obtained:
Cytochrome P450 2D6 = Cytochrome P450 2D6 (Homo sapiens, UniProt P10635); assay: qHTS Assay for Inhibitors and Substrates of Cytochrome P450 2D6. [Related pubchem assays: 410 ]; format: ADME; details: read-out: Potency
[1] = NIH-3T3 fibroblast cytotoxicity, dose response, cytotoxicity control, cell-based, fluorescence, Alamar Blue, secondary assay (AID 2327); format: functional;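 note: NIH-3T3 mouse fibroblasts cultured with fluconazole at 8 µg/mL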
[2] = inhibitors of firefly luciferase expression or activity, dose response, H4 neuroglioma cells, luminescence (AID 1990); format: functional, cell-based
[3] = molecular target: Sphingosine 1-phosphate receptor 2 (Homo sapiens, UniProt O95136); assay: Dose Response Cell Based Assay for Antagonists of the S1P2 Receptor. [Related pubchem assays: 856, 736 ]; format: functional
Sphingosine 1-phosphate receptor 2, sequence (O95136 whole entry): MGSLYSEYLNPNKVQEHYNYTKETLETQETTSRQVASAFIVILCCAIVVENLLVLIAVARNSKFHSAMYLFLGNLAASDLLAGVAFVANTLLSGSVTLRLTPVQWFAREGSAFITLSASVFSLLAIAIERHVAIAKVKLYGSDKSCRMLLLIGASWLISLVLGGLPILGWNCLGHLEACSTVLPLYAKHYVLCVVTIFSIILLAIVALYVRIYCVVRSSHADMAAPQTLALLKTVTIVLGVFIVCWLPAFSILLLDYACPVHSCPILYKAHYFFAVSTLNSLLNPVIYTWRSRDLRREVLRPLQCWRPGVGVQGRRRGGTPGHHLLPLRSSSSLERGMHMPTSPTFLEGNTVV

[4] = Luminescence Cell-Based Dose Response HTS to Identify Inhibitors of 5'UTR Stem-Loop Driven Prion Protein mRNA Translation in H4 Neuroglioblastoma Cells. [Related pubchem assays: 1827 (Project Summary), 1813 (Primary HTS)]; format: functional
[5] = inhibitors of SNCA 5'UTR-driven reporter translation, confirmation, H4 neuroglioma cells, luminescence (AID 1988); format: functional, cell-based
[6] = C. albicans growth with fluconazole, confirmation, fluorescence, retest (AID 2467); format: functional, cell-based
[7] = Luminescence-based dose response cell-based high throughput screening assay for cytotoxic compounds using the IEC-6 intestinal epithelial cell line. [Related pubchem assays: 1858 (Summary AID.), 1825 (Counterscreen.), 1907 (Confirmation screen.)]; format: functional
[8] = cytotoxicity in HEK-293T cells, dose response, cytotoxicity control for TCR NF-kB inhibitor project, luminescence, T-cell screen hits (AID 489026); format: functional, cell-based;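 note: cells exposed to compound about 14 hours before the viability readout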
Cytochrome P450 2C19 = Cytochrome P450 2C19 (Homo sapiens, UniProt P33261); assay: Cytochrome panel assay with activity outcomes. Panel member name: p450-cyp2c19 Compounds with AC50 equal or less than 10 uM are considered active; format: functional; details: read-out: AC50
Cytochrome P450 2C19, sequence (P33261 whole entry): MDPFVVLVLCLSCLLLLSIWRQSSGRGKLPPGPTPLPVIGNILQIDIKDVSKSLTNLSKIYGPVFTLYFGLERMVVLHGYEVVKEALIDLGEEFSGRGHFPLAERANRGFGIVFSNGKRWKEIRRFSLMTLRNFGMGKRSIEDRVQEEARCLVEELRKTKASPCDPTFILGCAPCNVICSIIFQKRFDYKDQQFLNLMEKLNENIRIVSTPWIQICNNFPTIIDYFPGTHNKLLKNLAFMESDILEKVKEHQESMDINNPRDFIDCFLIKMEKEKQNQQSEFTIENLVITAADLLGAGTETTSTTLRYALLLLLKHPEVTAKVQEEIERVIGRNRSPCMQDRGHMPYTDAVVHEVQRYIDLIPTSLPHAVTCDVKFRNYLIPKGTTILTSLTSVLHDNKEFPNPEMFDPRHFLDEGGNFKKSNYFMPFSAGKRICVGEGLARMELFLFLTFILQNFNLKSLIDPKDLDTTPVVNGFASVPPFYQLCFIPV

INS1 = assay: beta cell apoptosis inhibitors, cytokine rescue, dose response, luminescence, retest (AID 449756); format: functional, cell-based; details: Rattus norvegicus;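 note: cell death triggered by IL-1 beta plus TNF-alpha plus IFN-gamma mixture; protective hits raise ATP signal compared with cytokine alone wells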
[9] = Shn3 3'UTR reporter inhibitors, dose response, cell-based, Clone20 osteoblasts, firefly luciferase, cherry-picked (AID 624132); format: functional;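 note: firefly luciferase luminescence from reporter carrying the Shn3 3'UTR in osteoblasts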
[10] = HepG2 cell cytotoxicity, dose response, cytotoxicity control for Shn3 inhibitor project, CellTiter-Glo, cherry-picked (AID 624134); format: functional, cell-based
[11] = control 3'UTR Renilla luciferase suppression, dose response, counter-screen for Shn3 inhibitor project, cell-based, Clone20-Shn3RL, cherry-picked (AID 624133); format: functional
Cytochrome P450 1A2 = molecular target: T1, Cytochrome P450 1A2 (Homo sapiens, UniProt P05177);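 note: PubChem cytochrome P450 panel assay, CYP1A2 panel member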
T1 sequence (P05177 whole entry): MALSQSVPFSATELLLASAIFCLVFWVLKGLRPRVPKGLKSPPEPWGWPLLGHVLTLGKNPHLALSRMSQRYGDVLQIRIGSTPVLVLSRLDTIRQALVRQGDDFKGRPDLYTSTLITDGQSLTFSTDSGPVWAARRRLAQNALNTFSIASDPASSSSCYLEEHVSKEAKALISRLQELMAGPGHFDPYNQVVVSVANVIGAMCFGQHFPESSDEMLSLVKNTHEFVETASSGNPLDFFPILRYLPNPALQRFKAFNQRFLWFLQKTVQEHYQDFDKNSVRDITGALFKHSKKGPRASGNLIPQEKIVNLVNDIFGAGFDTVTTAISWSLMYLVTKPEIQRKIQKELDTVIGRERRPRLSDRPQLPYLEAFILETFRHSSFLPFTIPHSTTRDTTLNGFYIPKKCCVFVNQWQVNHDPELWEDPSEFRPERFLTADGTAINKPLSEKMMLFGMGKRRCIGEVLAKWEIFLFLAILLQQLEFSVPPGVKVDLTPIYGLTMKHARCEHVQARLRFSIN

Cytochrome P450 3A4 = Cytochrome P450 3A4 (Homo sapiens, UniProt P08684);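 note: CYP3A4 tested as one member of a cytochrome P450 panel screen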
Hexokinase HKDC1 = molecular target: T2, Hexokinase HKDC1 (Homo sapiens, UniProt Q2TB90); assay: HKDC1 hexokinase inhibitors, dose response, biochemical, W721R variant (AID 504729); format: functional
T2 sequence (Q2TB90 whole entry): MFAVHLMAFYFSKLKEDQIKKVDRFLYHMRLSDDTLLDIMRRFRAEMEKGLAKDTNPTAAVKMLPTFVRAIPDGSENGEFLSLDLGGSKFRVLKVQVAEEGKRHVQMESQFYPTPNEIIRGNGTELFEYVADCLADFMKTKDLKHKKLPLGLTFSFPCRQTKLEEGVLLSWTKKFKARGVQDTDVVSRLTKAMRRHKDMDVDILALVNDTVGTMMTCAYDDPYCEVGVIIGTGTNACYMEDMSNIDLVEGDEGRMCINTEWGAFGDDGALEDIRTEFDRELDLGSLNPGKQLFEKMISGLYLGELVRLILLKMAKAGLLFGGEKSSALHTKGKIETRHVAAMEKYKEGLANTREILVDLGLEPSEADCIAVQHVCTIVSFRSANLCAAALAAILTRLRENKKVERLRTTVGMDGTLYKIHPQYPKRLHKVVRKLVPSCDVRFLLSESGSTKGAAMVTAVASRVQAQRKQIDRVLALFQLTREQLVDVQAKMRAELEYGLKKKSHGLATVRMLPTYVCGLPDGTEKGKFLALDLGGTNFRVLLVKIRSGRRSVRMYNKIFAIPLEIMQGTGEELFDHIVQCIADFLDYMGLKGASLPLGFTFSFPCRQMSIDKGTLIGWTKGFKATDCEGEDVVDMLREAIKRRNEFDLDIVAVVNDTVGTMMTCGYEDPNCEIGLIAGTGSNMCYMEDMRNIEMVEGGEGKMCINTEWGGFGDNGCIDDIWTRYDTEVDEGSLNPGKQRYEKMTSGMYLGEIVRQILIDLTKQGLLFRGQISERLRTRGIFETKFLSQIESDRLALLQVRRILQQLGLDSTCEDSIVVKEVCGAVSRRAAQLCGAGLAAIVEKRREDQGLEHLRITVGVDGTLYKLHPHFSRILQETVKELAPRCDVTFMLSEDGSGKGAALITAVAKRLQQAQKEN

[12] = A cytotoxicity screen of small molecule inhibitors of the PhoP region in Salmonella typhi identified in the primary screen. [Related pubchem assays: 1850, 1864, 1985 ]; format: functional
[13] = system: Streptococcus sp. 'group A'; assay: growth inhibition of control SK(-) GAS strain, dose response, counter-screen for streptokinase expression inhibitor project, luminescence, kanamycin, BacTiterGlo, confirmation (AID 1900); format: functional, organism-based
Streptococcus = assay: Group A Streptococcus viability loss, dose response, counter-screen for streptokinase expression inhibitor project, luminescence, BacTiterGlo (AID 1915); format: functional, organism-based;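 note: potency for reduction of bacterial viability or growth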
[14] = Luminescence-based counterscreen assay for KLF5 inhibitors: dose response cell-based high throughput screening assay to identify cytotoxic compounds using the IEC-6 intestinal epithelial cell line. [Related pubchem assays: 1700 (Primary screen.), 1834 (Confirmation screen.), 1858 (Summary AID.), 1905 (Counterscreen.)]; format: functional
[15] = A Cell Based Secondary Assay To Explore Cytotoxicity of Compounds that Sensitize Mycobacterium Tuberculosis to Beta-Lactam Antibiotics.; format: functional
[16] = molecular target: Peroxisome proliferator-activated receptor gamma/Nuclear receptor coactivator 2 (Homo sapiens, UniProt P37231); format: functional;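 note: agonist potency for raising coactivator recruitment to the receptor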
[17] = molecular target: Peroxisome proliferator-activated receptor gamma/Nuclear receptor coactivator 1 (Homo sapiens, UniProt P37231); format: functional;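 note: agonist potency as compounds enhance coactivator SRC-1 recruitment to PPARgamma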
Peroxisome proliferator-activated receptor gamma/Nuclear receptor coactivator 1, sequence (P37231 whole entry): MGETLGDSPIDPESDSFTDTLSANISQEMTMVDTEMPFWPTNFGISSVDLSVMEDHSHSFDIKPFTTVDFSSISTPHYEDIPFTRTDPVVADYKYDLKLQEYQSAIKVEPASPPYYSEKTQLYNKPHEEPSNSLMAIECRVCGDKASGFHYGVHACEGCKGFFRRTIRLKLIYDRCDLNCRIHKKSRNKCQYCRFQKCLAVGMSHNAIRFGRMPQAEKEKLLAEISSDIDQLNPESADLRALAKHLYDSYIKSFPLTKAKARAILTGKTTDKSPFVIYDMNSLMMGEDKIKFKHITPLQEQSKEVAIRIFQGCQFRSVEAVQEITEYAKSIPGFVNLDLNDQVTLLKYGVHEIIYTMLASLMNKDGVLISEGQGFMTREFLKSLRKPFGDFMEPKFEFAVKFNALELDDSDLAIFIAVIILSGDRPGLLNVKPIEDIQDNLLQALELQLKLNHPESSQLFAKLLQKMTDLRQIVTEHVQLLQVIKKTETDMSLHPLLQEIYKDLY
Peroxisome proliferator-activated receptor gamma/Nuclear receptor coactivator 1, sequence (Q15788 whole entry, further chain): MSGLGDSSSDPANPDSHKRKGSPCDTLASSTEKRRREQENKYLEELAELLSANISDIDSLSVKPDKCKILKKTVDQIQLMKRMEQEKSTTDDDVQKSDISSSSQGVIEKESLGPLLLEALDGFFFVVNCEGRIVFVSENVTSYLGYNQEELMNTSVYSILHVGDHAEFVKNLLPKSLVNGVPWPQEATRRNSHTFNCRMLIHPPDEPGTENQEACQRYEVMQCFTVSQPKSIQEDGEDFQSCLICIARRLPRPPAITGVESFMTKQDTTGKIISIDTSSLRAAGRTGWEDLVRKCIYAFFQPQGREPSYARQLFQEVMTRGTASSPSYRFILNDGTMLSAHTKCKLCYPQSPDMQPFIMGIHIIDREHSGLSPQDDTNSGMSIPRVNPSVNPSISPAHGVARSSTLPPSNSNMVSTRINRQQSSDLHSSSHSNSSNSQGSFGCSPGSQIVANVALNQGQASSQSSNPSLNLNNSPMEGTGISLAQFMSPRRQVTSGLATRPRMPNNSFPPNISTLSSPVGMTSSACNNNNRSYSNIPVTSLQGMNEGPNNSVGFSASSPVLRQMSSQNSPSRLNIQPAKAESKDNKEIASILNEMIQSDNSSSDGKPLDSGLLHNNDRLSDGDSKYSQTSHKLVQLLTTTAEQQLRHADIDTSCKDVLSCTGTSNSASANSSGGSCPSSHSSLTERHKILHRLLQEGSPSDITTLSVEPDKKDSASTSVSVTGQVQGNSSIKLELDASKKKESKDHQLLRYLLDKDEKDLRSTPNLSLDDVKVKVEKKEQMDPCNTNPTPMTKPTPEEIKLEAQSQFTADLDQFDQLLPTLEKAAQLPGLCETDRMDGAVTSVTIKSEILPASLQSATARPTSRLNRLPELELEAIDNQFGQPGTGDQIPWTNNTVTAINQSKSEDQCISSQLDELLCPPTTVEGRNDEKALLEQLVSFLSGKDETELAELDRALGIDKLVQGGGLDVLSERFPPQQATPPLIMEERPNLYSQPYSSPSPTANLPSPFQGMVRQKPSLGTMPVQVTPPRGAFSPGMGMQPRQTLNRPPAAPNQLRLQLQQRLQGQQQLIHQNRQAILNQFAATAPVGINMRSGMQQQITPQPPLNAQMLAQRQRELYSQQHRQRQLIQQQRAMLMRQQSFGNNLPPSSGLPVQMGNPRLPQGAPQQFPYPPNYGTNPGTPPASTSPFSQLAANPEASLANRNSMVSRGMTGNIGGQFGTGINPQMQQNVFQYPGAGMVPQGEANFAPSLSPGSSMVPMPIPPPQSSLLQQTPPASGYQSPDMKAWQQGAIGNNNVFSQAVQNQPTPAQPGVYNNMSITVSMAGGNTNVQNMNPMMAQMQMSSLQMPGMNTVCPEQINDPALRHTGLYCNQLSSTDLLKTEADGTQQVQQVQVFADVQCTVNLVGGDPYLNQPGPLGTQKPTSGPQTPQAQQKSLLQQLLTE

[18] = molecular target: Peroxisome proliferator-activated receptor gamma/Nuclear receptor coactivator 3 (Homo sapiens, UniProt P37231); format: functional;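 note: agonist potency for raising coactivator recruitment to the receptor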
Peroxisome proliferator-activated receptor gamma/Nuclear receptor coactivator 3, sequence (P37231 whole entry): as the sequence (P37231 whole entry) above
Peroxisome proliferator-activated receptor gamma/Nuclear receptor coactivator 3, sequence (Q9Y6Q9 whole entry, further chain): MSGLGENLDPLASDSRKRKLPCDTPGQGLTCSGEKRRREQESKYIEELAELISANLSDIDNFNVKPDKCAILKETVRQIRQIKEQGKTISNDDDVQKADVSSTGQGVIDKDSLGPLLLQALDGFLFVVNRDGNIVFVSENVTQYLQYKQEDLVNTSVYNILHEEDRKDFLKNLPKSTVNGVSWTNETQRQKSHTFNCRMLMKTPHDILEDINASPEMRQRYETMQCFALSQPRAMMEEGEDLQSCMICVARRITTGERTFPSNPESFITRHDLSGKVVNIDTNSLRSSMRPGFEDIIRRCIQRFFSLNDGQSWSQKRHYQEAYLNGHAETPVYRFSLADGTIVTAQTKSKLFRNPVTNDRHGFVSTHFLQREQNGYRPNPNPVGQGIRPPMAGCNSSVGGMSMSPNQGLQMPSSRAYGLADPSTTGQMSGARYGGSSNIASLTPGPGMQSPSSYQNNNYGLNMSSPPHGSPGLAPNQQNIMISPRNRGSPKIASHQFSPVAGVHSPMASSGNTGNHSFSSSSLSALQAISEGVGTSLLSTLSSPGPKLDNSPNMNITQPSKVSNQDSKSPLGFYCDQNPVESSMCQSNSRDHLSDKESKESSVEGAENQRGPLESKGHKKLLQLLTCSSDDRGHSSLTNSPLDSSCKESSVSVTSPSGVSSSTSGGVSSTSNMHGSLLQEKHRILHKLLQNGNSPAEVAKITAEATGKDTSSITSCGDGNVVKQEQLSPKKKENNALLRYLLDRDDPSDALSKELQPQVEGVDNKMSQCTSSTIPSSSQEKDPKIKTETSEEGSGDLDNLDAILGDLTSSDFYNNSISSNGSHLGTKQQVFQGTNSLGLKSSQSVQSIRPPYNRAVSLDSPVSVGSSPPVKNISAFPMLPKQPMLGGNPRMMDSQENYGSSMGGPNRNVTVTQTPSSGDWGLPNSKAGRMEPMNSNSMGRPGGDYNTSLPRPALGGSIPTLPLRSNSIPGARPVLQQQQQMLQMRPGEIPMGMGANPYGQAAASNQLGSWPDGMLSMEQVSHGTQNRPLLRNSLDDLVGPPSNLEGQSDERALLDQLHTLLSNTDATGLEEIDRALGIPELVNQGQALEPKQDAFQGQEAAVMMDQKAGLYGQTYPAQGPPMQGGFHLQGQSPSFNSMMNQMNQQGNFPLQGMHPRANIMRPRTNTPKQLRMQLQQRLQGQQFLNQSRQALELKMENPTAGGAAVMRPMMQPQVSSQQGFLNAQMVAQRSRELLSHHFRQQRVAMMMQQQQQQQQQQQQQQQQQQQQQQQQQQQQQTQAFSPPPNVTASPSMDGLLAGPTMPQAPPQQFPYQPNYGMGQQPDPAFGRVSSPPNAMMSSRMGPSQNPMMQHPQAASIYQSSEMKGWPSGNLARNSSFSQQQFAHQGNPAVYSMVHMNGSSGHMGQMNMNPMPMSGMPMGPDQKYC

SMILES: CC12C=C(/C=C/C=C/c3ccccc3)C(C)(C1)C(/C=C/c1ccccc1)CC2=O (stereo unspecified)
- AC50 (Cytochrome P450 2D6): 3.16 µM (inconclusive)

SMILES: Cn1c2c(c(=O)n(C)c1=O)C(C(F)(F)F)(C(F)(F)F)NC(c1ccc(Cl)cc1)=N2
- EC50 [1]: 2.61 µM (active)
- EC50 [2]: 0.383 µM (active)
- IC50 [3]: 3.79 µM (active)
- EC50 [4]: 3.25 µM (active)
- EC50 [5]: 2.83 µM (active)
- EC50 [6]: 0.628 µM (active)
- IC50 [7]: 2.72 µM (active)
- IC50 [8]: > 80 µM (inactive)
- AC50 (Cytochrome P450 2C19): 2.82 µM (inconclusive)
- AC50 (INS1): 0.983 µM (active)
- AC50 [9]: 1.47 µM (active)
- AC50 [10]: 0.756 µM (active)
- AC50 [11]: 2.03 µM (active)
- AC50 (Cytochrome P450 1A2): 17.8 µM (inconclusive)
- AC50 (Cytochrome P450 3A4): 15.8 µM (inconclusive)

SMILES: COC(=O)c1ccc(NC(=O)CSc2n[nH]c(-c3ccncc3)n2)cc1
- IC50 (Hexokinase HKDC1): 17.6 µM (active)

SMILES: O=C(/C=C/c1ccc(Cl)cc1Cl)NCc1ccncc1
- EC50 [12]: > 50 µM (active)

SMILES: Cn1c2ccccc2c(=O)c2c(=O)n(-c3ccc(F)cc3)c(-c3cccs3)nc21
- EC50 [13]: 9.47 µM (active)
- EC50 (Streptococcus): 9.21 µM (active)
- IC50 (Hexokinase HKDC1): 2.72 µM (active)

SMILES: CCOC(=O)c1sc(NC(=O)c2cc3ccccc3o2)nc1C
- IC50 [14]: > 39.8 µM (not active)

SMILES: COc1ccc(OC)c(-c2cc(C(=O)Nc3c(C)nn(Cc4ccccc4C)c3C)no2)c1
- CC50 [15]: 34.7 µM (active)

SMILES: CCc1ccc(OCC(=O)NNC(=O)CSc2ncnc3sc(C)c(C)c23)cc1
- EC50 [16]: 25.7 µM (not active)
- EC50 [17]: 28.8 µM (not active)
- EC50 [18]: 33.8 µM (not active)
